# From patent US6475719B1, “Determination of factors affecting gene regulation and/or gene replication” (priority 1989, dated 2002)
# What was measured:
# [1] = system: E. coli pCSS123/JM103 cells; assay: Change in plasmid copy number: total DNA from heat-treated cells, agarose gel; assay type: cell-based, Escherichia coli; details: 42° C. for one hour; tested at 0, 1, 10 and 100 μg/ml; FIG. 8
# Experimental: The plasmid pCSS123 described in the instant invention is a runaway-replication plasmid, in which a change in copy number can be obtained by shifting the temperature (FIG. 8). The effect of nalidixic acid, an agent known to inhibit DNA replication of cell DNA and especially of plasmid pCSS123 DNA, is shown in FIG. 8.
# E. coli pCSS123/JM103 cells were cultivated in 20 ml of 2×TY at 30° C. in four Erlenmeyer bottles until the absorbance measured at 600 nm was 0.3. Nalidixic acid, a known inhibitor of DNA replication, was added to a final concentration of 0, 1, 10 and 100 μg/ml. Parallel samples of 1.5 ml from each bottle were immediately withdrawn to 15 ml tubes and kept at 30° C. for 20 min. The tubes were transferred to 42° C. for one hour and the bottles were left at 30° C. After one hour, both the tubes and the bottles were kept for an additional hour at 30° C. in a shaker. Total-DNA was extracted from 1.5 ml of culture.
# Cells were centrifuged and the pellets were suspended in 500 μl 50 mM TRIS-HC1, pH 8.0, 50 mM EDTA. Cells were kept in an ice bath for 30 min and 50 μl of lysozyme (10 mg/ml) was added and kept in an ice bath for 45 min. One hundred μl of STEP solution (0.5% SDS, 50 mM TRIS-HC1, pH 7.5, 0.4 M EDTA) was added and kept at 50° C. for 60 min. After this, 600 μl of phenol was added and the tubes were gently mixed for 5 min and centrifuged 10 min at 12000×g. […]
# [2] = system: E. coli pCSS123/JM103 cells; assay: Light production by cells with runaway-replication plasmid pCSS123; assay type: cell-based, Escherichia coli; details: 20 min at 30° C., 42° C. one hour, IPTG 1 mM; FIG. 9a
# Experimental: E. coli pCSS123/JM103 cells grown overnight were diluted 1:1000. Diluted cells in 2×TY were taken (0.5 ml) and various amounts of antibiotics or other toxic substances were added. These solutions were incubated 20 min at 30° C. After this the samples were transferred to 42° C. for one hour. Each tube was thereafter incubated at 30° C. in a waterbath and IPTG was added to 1 mM and n-decanal to 0.01%. The tubes were transferred to an automated light-gathering device, i.e., luminometer 1251 (LKB-Wallac, Turku, Finland) whose measuring chamber had been equilibrated to 30° C. Measurement of light emission by the cells was done with the auto-mode program so that each tube was automatically measured every two minutes. Data were collected in the memory of the computer for later analyses. […] For clarity reasons only two concentrations of chloramphenicol were compared to the untreated control.
# [3] = system: metallothioneins; details: cadmium added to growth medium to 4×10^−6 molar; eucaryotic cells; cited from earlier work
# [4] = system: E. coli pCSS112/K-12 HI trp(c1857); assay: Light production, bacterial luciferase under PL promoter (pCSS112); assay type: cell-based, Escherichia coli; details: concentration in the measuring cuvette; 20 min at 30° C., 42° C. for 10 minutes
# Experimental: A comparison is made between plasmids where the expression of bacterial luciferase genes are controlled by either lac (slow) or PL promoter (fast) promoters. E. coli clone pCSS112/K-12 HI trp(c1857) was grown overnight in 2×TY medium containing ampicillin 100 μg/ml. After this a suitable dilution was made in HBSS-buffer or in milk and 500 μl of this was added to 3 ml luminometer tubes. The tubes were equilibrated to 30° C. and different amounts of various toxic substances were added to tubes. Tubes were kept at 30° C. for 20 min, after which the temperature was shifted to 42° C. for 10 minutes. Thereafter the tubes were removed to luminometer chamber which had been equilibrated to 30° C. for automated measurement. As a comparison, an E. coli JM103 clone containing plasmid pCSS108 was used as a control. The control cells were treated similarly but without the heat-shock step. Messanger RNA and protein synthesis were induced in the control cells by adding IPTG to 1 mM. […] In case of chloramphenicol, the kinetics of light production have been shown in FIG. 11a when plasmid pCSS112 in E. coli K-12 HI trp(c1857) strain is used.
# The following examples show detection of substances affecting other biosynthetic routes and metabolism of cells. […]
# The following figures show the effect of each tested substance as measured by light production. […]
# [5] = system: B. subtilis 1A40 cells; assay: Light emission, click beetle luciferase (pCSS962), IPTG induced; assay type: cell-based, Bacillus subtilis; details: incubation 2 hours at 30° C.; FIG. 11b
# Experimental: Using this construction, the production of luciferase can be turned on in B. subtilis by simple addition of IPTG, which binds to the lac repressor coded by the helper plasmid pBL1 present in the same cell. After IPTG binds to the repressor, the repressor cannot bind to the DNA region between phage T5 promoter and the luciferase gene thus allowing the expression of luciferase. Cells containing both plasmids were cultured overnight in 2×TY containing erythromycin (10 μg/ml, to keep pBL1 in the cell) and kanamycin (10 μg/ml, to keep pCSS952 in the cell). A suitable dilution was made and different amounts of antibiotic were added to the cells. After an incubation period of 2 hours at 30° C., the tubes were measured for light emission after addition of 1 mM D-luciferin substrate in 0.1 M Na-citrate. As shown in FIG. 11b a low amount of 0.1 ug/ml ampicillin and even lower amounts of oxytetracyclin and streptomycin can be detected.
# [6] = system: E. coli pCSS123/BW322; details: heat induced at 42° C. for 25 minutes; FIG. 9d
# Experimental: Freeze-dried E. coli pCSS123/BW322 were reconstituted with 1.0 ml of 2×TY and 45 μl of this was diluted 1:10 with 2×TY. Five μl of trimethoprim dilutions were added and kept at room temperature for 25 minutes. Cells were heat induced at 42° C. for 25 minutes and equilibrated to 30° C. in a water bath for 10 minutes. n-decanal was added to 0.001% and light production was measured using a LKB-Wallac 1250 manual luminometer. Same concentrations of trimethoprim together with reconstituted, freeze-dried cells which were not heat-treated acted as controls.
structure (smiles),measurement,setting,value
CCn1cc(C(=O)O)c(=O)c2ccc(C)nc21 [nalidixic acid],amount of nalidixic acid in whose presence DNA content was unaffected (no heat-induced increase of plasmid DNA),[1],≥ 1 µg
same,amount that can be detected very quickly by light emission,[2],2 µg
[Cd] [cadmium],increase in the production of metallothioneins,[3],over fifty
O=C(N[C@H](CO)[C@H](O)c1ccc([N+](=O)[O-])cc1)C(Cl)Cl [chloramphenicol],lowest concentration giving differences in measured activity (light production) from the start of measurement,[4],0.1 µg/mL
CC1(C)S[C@@H]2[C@H](NC(=O)[C@H](N)c3ccccc3)C(=O)N2[C@H]1C(=O)O [ampicillin],amount that can be detected by light emission,[5],0.1 µg/mL
COc1cc(Cc2cnc(N)nc2N)cc(OC)c1OC [trimethoprim],sensitivity of detection by light production,[6],sensitivity of the assay is very high
